# Results as given in the OPERA property sets (Mansouri et al. 2018).
# Where a SMILES comes first, the peptide text is derived from it. The star is where a group is joined. NHtBu = CC(C)(C)N*
row,SMILES,logP
1,CNCCN(C)S(=O)(=O)c1ccc(CONC(N)=O)c([N+](=O)[O-])c1,0.45
2,O=NN(CCCl)C(=O)NC1CCCCC1C(=O)O (centres undefined),2.01
3,O=C(Cn1c(=O)sc2ccc(Cl)cc21)N1CC[N+]([O-])(CCO)CC1,0.05
4,CCCOc1cccc(NC(=O)OCCN2CCOCC2)c1,3.04
5,O=C(O)c1ccc([N+](=O)[O-])c(O)c1,1.98
6,CCN1C(=O)C(=O)c2c(C(N)=O)cccc2C1=O,-0.5
7,NC(=O)COc1cccc(Cc2cnc(N)nc2N)c1,0.28
8,Cc1cn(C2CC(N=[N+]=[N-])C(COC(=O)CCNC(=O)C34CC5CC(CC(C5)C3)C4)O2)c(=O)[nH]c1=O (centres undefined),2.14
9,c1ccc(Cn2cnnn2)cc1,1.36
10,CSCCC(NC(C)=O)C(=O)NC(Cc1ccccc1)C(N)=O (centres undefined),0.42
11,Cc1c([N+](=O)[O-])ncn1C,-0.11
12,CCC1COC(Cn2cncn2)(c2ccc(-n3cncn3)cc2Cl)O1 (centres undefined),1.28
13,Cc1ccccc1NN=C(C#N)C#N,2.38
14,O=C(c1ccc(F)cc1)C1CCN(CCn2c(=O)[nH]c3ccccc3c2=O)CC1,3.29
15,O=C(Cc1ccccc1)Nc1cccc(C(F)(F)F)c1,3.84
16,CN(C)C=Nc1ccn(C2OC(CO)C(O)C2O)c(=O)n1 (centres undefined),-1.68
17,CN(C)Cc1ccc(-c2cccc(Nc3[nH]ccc3[N+](=O)[O-])c2)o1,3.1
18,CN(C)c1nc(=O)cc(-c2ccc([N+](=O)[O-])o2)s1,0.55
19,COC1CC(OC2CCC3(C)C(CCC4C3CCC3(C)C(C5=CC(=O)OC5)C(OC(C)=O)CC43OC(C)=O)C2)OC(C)C1O (centres undefined),2.95
20,CCCCCCOc1ccccc1NC(=O)OCCN1CCOCC1,4.24
21,Clc1cccc(-c2c(Cl)c(Cl)c(Cl)c(Cl)c2Cl)c1,7.3
22,C(=C\c1ccccc1)/CN1CCN(C(c2ccccc2)c2ccccc2)CC1,5.77
23,Cc1cc(=O)[nH]c(=O)[nH]1,-0.77
24,CCN1CC(C(O)C(CC2CCCCC2)NC(=O)C(Cc2c[nH]cn2)NC(=O)C(Cc2ccc(OC)cc2)NC(=O)C(C)C)OC1=O (centres undefined),2.85
25,COc1nc(N(C)C)nc(C(Cl)(Cl)Cl)n1,3.33

row,SMILES,logP
1,CC12C=CC(=O)C=C1CCC1C2C(O)CC2(C)C1CCC2(O)C(=O)COC1OC(CO)C(OC2OC(CO)C(O)C(O)C2O)C(O)C1O (centres undefined),-0.56
2,Cc1ccc(C)c(NN=C(C#N)C#N)c1,3.08
3,OCC1CC(F)C(n2cnc3c(Br)ncnc32)O1 (centres undefined),0.44
4,CC(=NNC(=S)NNC(=S)Nc1ccccc1Cl)c1ccccn1,2.67
5,Cc1cc(O)c(C)c(C)c1O,1.69
6,COC(C)(C(=O)O)c1ccccc1 (centres undefined),1.64
7,CCNC(=O)c1cccc2c1C(=O)C(=O)N(CC)C2=O,0.3
8,OC1CCN(CCCc2ccccc2CSc2ccccc2)CC1,3.85
9,Cn1ccc(=O)c2ccccc21,0.44
10,CCN1C(=O)C(=O)c2c(OC)cccc2C1=O,0.9
11,Cc1cc(C)cc(Cl)c1,3.88
12,CC(C)OC(=O)c1cnc2n(c1=O)C(C)CCC2 (centres undefined),0.99
13,CCCCCC1CC(C(=O)NC(C(C)O)C2OC(SC)C(O)C(O)C2O)N(C)C1 (centres undefined),0.93
14,Cc1ccc(C(=O)COc2c(C(=O)c3ccc(Cl)c(C)c3Cl)c(C)nn2C)cc1,4.69
15,CNC(=NC#N)NCCCCc1ncccc1OC,1.5
16,O=C(O)Cc1nn(Cc2nc3cc(Br)ccc3s2)c(=O)c2ccccc12,3.35
17,CC(=O)NC(C)C(=O)NC(CCC(=O)O)C(=O)NC(C)C(=O)NC(C)(C)C (stereo not drawn) (Ac-Ala-Glu-Ala-NHtBu; configuration not given here),-0.67
18,C#CCOc1c(Cl)cc(NC=NOCc2ccccc2)cc1Cl,4.2
19,CCCN1C(=O)C(=O)c2ccccc2C1=O,1.6
20,N=c1ccn2c(n1)OC1C(O)C(CCl)OC12 (centres undefined),-3.1
21,CC(=O)OC1CC(OC2C(O)CC(OC3CCC4(C)C(CCC5C4CC(O)C4(C)C(C6=CC(=O)OC6)CCC54O)C3)OC2C)OC(C)C1OC1CC(O)C(O)C(C)O1 (centres undefined),2
22,Oc1ccc(F)c2cccnc12,2.3
23,C=CCn1cccn1,0.35
24,CCC(=O)OC1(c2ccccc2)CCN(C)C(C)C1C (centres undefined),3.13
